The experiment addresses T1, V600E full-length B-Raf (Homo sapiens, UniProt P15056, V600E).
T1 construct: 1 μM FSBA-MEK and 20 nM V600E full-length B-Raf; made in house; host or cells: sf9 insect cells (baculovirus)
The experiment in a line: B-Raf IC50 Assay (B-RAF V600E inhibition assay, Example A). The experiment is classed as biochemical. From the text:
Determining the activity of Raf in the sample is possible by a number of direct and indirect detection methods (US 2004/0082014). Activity of human recombinant B-Raf protein may be assessed in vitro by assay of the incorporation of radio labeled phosphate to recombinant MAP kinase (MEK), a known physiologic substrate of B-Raf, according to US 2004/0127496 and WO 03/022840. The activity/inhibition of V600E full-length B-Raf was estimated by measuring the incorporation of radio labeled phosphate from [γ-33P]ATP into FSBA-modified wild-type MEK (see Example A).
Activity of human recombinant B-Raf protein may be assessed in vitro by assay of the incorporation of radio labeled phosphate to recombinant MAP kinase (MEK), a known physiologic substrate of B-Raf, according to U.S. Patent Appl. Publication No. 2004/0127496 and WO 03/022840. Catalytically active human recombinant B-Raf protein is obtained by purification from sf9 insect cells infected with a human B-Raf recombinant baculovirus expression vector.
The activity/inhibition of V600E full-length B-Raf was estimated by measuring the incorporation of radio labeled phosphate from [γ-33P]ATP into FSBA-modified wild-type MEK. The […] assay mixtures contained 25 mM Na Pipes, pH 7.2, 100 mM KCl, 10 mM MgCl2, 5 mM β-glycerophosphate, 100 μM Na Vanadate, 4 μM ATP, 500 nCi [γ-33P]ATP, 1 μM FSBA-MEK and 20 nM V600E full-length B-Raf. Incubations were carried out at 22° C. in a Costar 3365 plate (Corning). Prior to the assay, the B-Raf and FSBA-MEK were preincubated together in assay buffer at 1.5× (20 μL of 30 nM and 1.5 μM, respectively) for 15 minutes, and the assay was initiated by the addition of 10 μL of […]. Following the 60-minute incubation, the assay mixtures were quenched by the addition of 100 μL of 25% TCA, the plate was mixed on a rotary shaker for 1 minute, and the product was captured on a Perkin-Elmer GF/B filter plate using a Tomtec Mach III Harvester. After sealing the bottom of the plate, 35 μL of Bio-Safe II (Research Products International) scintillation cocktail were added to each well and the plate was top-sealed and counted in a Topcount NXT (Packard).

[1] abbreviates: B-Raf V600E assay of Example A: less than 100 nM, read-out: IC50.
The mark [2] stands for this setting: B-Raf V600E assay of Example A: less than about 1 μM, read-out: IC50.
The mark [3] stands for this setting: incorporation of radio labeled phosphate from [γ-33P]ATP into FSBA-modified wild-type MEK, 4 μM ATP, 20 nM V600E full-length B-Raf, 60-minute incubation, 22° C., read-out: BRAF V600E IC50.

Where two headings read alike, the source gives them in different places.

In general, IC50 refers to the concentration that inhibits the measured activity by half.

T1 sequence (P15056 whole entry V600E): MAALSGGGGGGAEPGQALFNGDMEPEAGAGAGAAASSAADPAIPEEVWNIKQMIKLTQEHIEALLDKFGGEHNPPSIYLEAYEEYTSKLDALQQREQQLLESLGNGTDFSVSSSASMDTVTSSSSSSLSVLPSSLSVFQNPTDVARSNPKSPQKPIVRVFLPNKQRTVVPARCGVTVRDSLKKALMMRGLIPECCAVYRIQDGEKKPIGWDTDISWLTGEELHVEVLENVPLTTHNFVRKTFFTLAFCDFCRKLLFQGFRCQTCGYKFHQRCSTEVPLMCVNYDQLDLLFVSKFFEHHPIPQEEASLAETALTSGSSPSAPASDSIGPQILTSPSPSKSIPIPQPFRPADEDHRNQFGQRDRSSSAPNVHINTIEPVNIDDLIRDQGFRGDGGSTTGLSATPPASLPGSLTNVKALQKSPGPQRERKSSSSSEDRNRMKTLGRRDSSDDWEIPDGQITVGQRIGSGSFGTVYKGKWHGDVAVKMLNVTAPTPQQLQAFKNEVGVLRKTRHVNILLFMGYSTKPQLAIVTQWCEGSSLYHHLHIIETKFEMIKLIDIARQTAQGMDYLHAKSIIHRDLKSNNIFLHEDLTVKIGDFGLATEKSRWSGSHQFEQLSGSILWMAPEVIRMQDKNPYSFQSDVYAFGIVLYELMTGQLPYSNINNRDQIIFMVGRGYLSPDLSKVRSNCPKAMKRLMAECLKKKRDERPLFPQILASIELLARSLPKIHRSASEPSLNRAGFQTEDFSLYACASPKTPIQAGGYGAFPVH

As for `CCCS(=O)(=O)Nc1cc(F)cc(NC(=O)c2csc3c(N)ncnc23)c1F` [Example 20, 4-Amino-thieno[3,2-d] pyrimidine-7-carboxylic acid [2,5-difluoro-3-(propane-1-sulfonyl-amino)-phenyl]-amide], the IC50 by setting is: under setting [1], under 100 nM; under setting [2], under 1000 nM; under setting [3], 5.7 nM.

On to `CCCS(=O)(=O)Nc1ccc(Cl)c(NC(=O)c2csc3c(NCC(F)F)ncnc23)c1Cl` [Example 69, 4-(2,2-Difluoro-ethylamino)-thieno[3,2-d] pyrimidine-7-carboxylic acid [2,6-dichloro-3-(propane-1-sulfonyl-amino)-phenyl]-amide], for which the IC50 by setting is: under setting [1], under 100 nM; under setting [2], under 1000 nM; under setting [3], 2.2 nM.

Consider `CCCS(=O)(=O)Nc1cc(F)c(F)c(NC(=O)c2csc3c(NC4CCOCC4)ncnc23)c1F` [Example 94, 4-(Tetrahydro-pyran-4-ylamino)-thieno[3,2-d] pyrimidine-7-carboxylic acid [2,3,6-trifluoro-5-(propane-1-sulfonyl-amino)-phenyl]-amide], for which the half-maximal inhibitory concentration (IC50) runs as follows: under setting [2], under 1000 nM; under setting [3], 704 nM.

With `CCCS(=O)(=O)Nc1cc(F)c(F)c(NC(=O)c2csc3c(NCCF)ncnc23)c1F` [Example 89, 4-(2-Fluoro-ethylamino)-thieno[3,2-d] pyrimidine-7-carboxylic acid [2,3,6-trifluoro-5-(propane-1-sulfonyl-amino)e-phenyl]-amid], the 50% inhibitory concentration (IC50) is under 100 nM under setting [1], under 1000 nM under setting [2] and 3.7 nM under setting [3].

In the case of `CCCS(=O)(=O)Nc1ccc(Cl)c(NC(=O)c2csc3cncnc23)c1F` [Example 111, Thieno[3,2-d]pyrimidine-7-carboxylic acid [6-chloro-2-fluoro-3-(propane-1-sulfonylamino)-phenyl]-amide], the 50% inhibitory concentration (IC50) is under 100 nM under setting [1], under 1000 nM under setting [2] and 21.1 nM under setting [3].

With `CCCS(=O)(=O)Nc1cc(F)c(F)c(NC(=O)c2csc3c(N)ncnc23)c1F` [Example 23, 4-Amino-thieno[3,2-d] pyrimidine-7-carboxylic acid [2,3,6-trifluoro-5-(pro-pane-1-sulfonyl-amino)-phenyl]-amide], the concentration for half-maximal inhibition (IC50) under setting [1] was under 100 nM, the IC50 under setting [2] is under 1000 nM and the concentration for half-maximal inhibition (IC50) under setting [3] was 0.8 nM.

For the compound `CCCS(=O)(=O)Nc1ccc(F)c(NC(=O)c2csc3c(C)ncnc23)c1Cl` [Example 38, 4-Methyl-thieno[3,2-d]pyrimidine-7-carboxylic acid [2-chloro-6-fluoro-3-(propane-1-sulfonylamino)-phenyl]-amide], the concentration for half-maximal inhibition (IC50) is, setting by setting: under setting [1], under 100 nM; under setting [2], under 1000 nM; under setting [3], 46.5 nM.

On to `Nc1ncnc2c(C(=O)Nc3c(Cl)ccc(NS(=O)(=O)CCCF)c3F)csc12` [Example 13, 4-Amino-thieno[3,2-d]pyrimidine-7-carboxylic acid[6-chloro-2-fluoro-3-(3-fluoro-propane-1-sulfonylamino)-phenyl]-amide], for which the IC50 is under 100 nM under setting [1], under 1000 nM under setting [2] and 0.1 nM under setting [3].

With `CCCS(=O)(=O)Nc1cc(F)cc(NC(=O)c2csc3c(N)ncnc23)c1Cl` [Example 17, 4-Amino-thieno[3,2-d] pyrimidine-7-carboxylic acid [2-chloro-5-fluoro-3-(propane-1-sulfonyl-amino)-phenyl]-amide], the half-maximal inhibitory concentration (IC50) under setting [1] is under 100 nM, the IC50 under setting [2] is under 1000 nM and the IC50 under setting [3] worked out at 1.4 nM.

As to `CCCS(=O)(=O)Nc1ccc(F)c(NC(=O)c2csc3c(NC4CCC4)ncnc23)c1F` [Example 55, 4-Cyclobutyl-amino-thieno [3,2-d] pyrimidine-7-carboxylic acid [2,6-difluoro-3-(propane-1-sulfonylamino)-phenyl]-amide], the IC50 reads like this: under setting [1], under 100 nM; under setting [2], under 1000 nM; under setting [3], 45.5 nM.

As for `CCCS(=O)(=O)Nc1ccc(F)c(NC(=O)c2nsc3c(N)ncnc23)c1F` [Example 30, 7-Amino-isothiazolo[4,5-d]pyrimidine-3-carboxylic acid [2,6-difluoro-3-(propane-1-sulfonylamino)-phenyl]-amide], the IC50 was under 100 nM under setting [1], under 1000 nM under setting [2] and 1.2 nM under setting [3].

Turning to `Nc1ncnc2c(C(=O)Nc3c(F)ccc(NS(=O)(=O)CC4CC4)c3Cl)csc12` [Example 16, 4-Amino-thieno[3,2-d] pyrimidine-7-carboxylic acid (2-chloro-3-cycloprop-ylmethanesulfonyl-amino-6-fluoro-phenyl)-amide], the concentration for half-maximal inhibition (IC50) reads like this: under setting [1], under 100 nM; under setting [2], under 1000 nM; under setting [3], 1.9 nM.

For `CCCS(=O)(=O)Nc1ccc(Cl)c(NC(=O)c2csc3c(NC4CCCCC4)ncnc23)c1Cl` [Example 81, 4-Cyclohexyl-amino-thieno [3,2-d] pyrimidine-7-carboxylic acid [2,6-dichloro-3-(propane-1-sulfonyl-amino)-phenyl]-amide], the 50% inhibitory concentration (IC50) is under 1000 nM under setting [2] and 110 nM under setting [3].

Turning to `CCCS(=O)(=O)Nc1cccc(NC(=O)c2nsc3c(N)ncnc23)c1C#N` [Example 33, 7-Amino-isothiazolo[4,5-d]pyrimidine-3-carboxylic acid [2-cyano-3-(propane-1-sulfonylamino)-phenyl]-amide], the 50% inhibitory concentration (IC50) is, setting by setting: under setting [1], under 100 nM; under setting [2], under 1000 nM; under setting [3], 0.38 nM.

On to `CCCS(=O)(=O)Nc1cc(F)c(F)c(NC(=O)c2csc3c(NC)ncnc23)c1F` [Example 92, 4-Methyl-amino-thieno[3,2-d] pyrimidine-7-carboxylic acid [2,3,6-trifluoro-5-(propane-1-sulfonyl-amino)-phenyl]-amide], for which the IC50 was under 100 nM under setting [1], under 1000 nM under setting [2] and 13.2 nM under setting [3].

With `CCNc1ncnc2c(C(=O)Nc3c(F)c(F)cc(NS(=O)(=O)CCCF)c3F)csc12` [Example 98, 4-Ethylamino-thieno[3,2-d] pyrimidine-7-carboxylic acid [2,3,6-trifluoro-5-(3-fluoro-propane-1-sulfonyl-amino)-phenyl]-amide], the half-inhibitory concentration (IC50) under setting [1] was under 100 nM, the IC50 under setting [2] was under 1000 nM and the concentration for half-maximal inhibition (IC50) under setting [3] is 2.16 nM.

Regarding `CCCS(=O)(=O)Nc1ccc(F)c(NC(=O)c2csc3c(N)ncnc23)c1` [Example 27, 4-Amino-thieno[3,2-d]pyrimidine-7-carboxylic acid[2-fluoro-5-(propane-1-sulfonylamino)-phenyl]-amide], the IC50 reads like this: under setting [2], under 1000 nM; under setting [3], 125 nM.

Regarding `O=C(Nc1c(F)ccc(NS(=O)(=O)CCCF)c1F)c1csc2cncnc12` [Example 109, Thieno[3,2-d]pyrimidine-7-carboxylic acid [2,6-difluoro-3-(3-fluoro-propane-1-sulfonyl-amino)-phenyl]-amide], the IC50 by setting is: under setting [1], under 100 nM; under setting [2], under 1000 nM; under setting [3], 40.3 nM.

For the compound `CCS(=O)(=O)Nc1ccc(F)c(NC(=O)c2csc3c(N)ncnc23)c1F` [Example 2, 4-Amino-thieno pyrimidine-7-carboxylic acid (3-ethanesulfonylamino-2,6-difluoro-phenyl)-amide], the half-inhibitory concentration (IC50) is under 100 nM under setting [1], under 1000 nM under setting [2] and 12 nM under setting [3].

Turning to `CCCS(=O)(=O)Nc1cc(F)c(F)c(NC(=O)c2csc3c(NN4CCOCC4)ncnc23)c1F` [Example 95, 4-(Morpholin-4-ylamino)-thieno[3,2-d] pyrimidine-7-carboxylic acid [2,3,6-trifluoro-5-(propane-1-sulfonyl-amino)-phenyl]-amide], the half-inhibitory concentration (IC50) under setting [1] was under 100 nM, the IC50 under setting [2] was under 1000 nM and the half-inhibitory concentration (IC50) under setting [3] was found to be 5.09 nM.

Regarding `CCCS(=O)(=O)Nc1ccc(F)c(NC(=O)c2c[nH]c3cncnc23)c1F` [Example 113, 5H-Pyrrolo[3,2-d] pyrimidine-7-carboxylic acid [2,6-difluoro-3-(propane-1-sulfonylamino)-phenyl]-amide], the IC50 under setting [2] is under 1000 nM and the IC50 under setting [3] came to 353 nM.

Values taken from patent US20120157439A1, “RAF INHIBITOR COMPOUNDS AND METHODS OF USE THEREOF” (GENENTECH, INC., priority 2009, published 2012).
